According to ChEMBL document CHEMBL1201862, “PubChem BioAssay data set” (2004):
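Compound exposure: 48 hours, 5 concentrations, 96-well plates. GI50 is the concentration that inhibits growth by half.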 The source made the active and inactive calls. Cut-off read from the data, not from the text of the source: active = GI50 up to about 1.1 µM and inactive = higher.

Columns and labels:
Assay in all cases: DTP human tumour cell line panel, 48 h
T47D = system: T47D
HOP-92 = system: HOP-92
PC-3 = system: PC-3
DU-145 = system: DU-145
IGROV-1 = system: IGROV-1
NCI-H226 = system: NCI-H226
SR = system: SR
786-0 = system: 786-0
NCI/ADR-RES = system: NCI/ADR-RES
TK-10 = system: TK-10
SK-OV-3 = system: SK-OV-3
OVCAR-8 = system: OVCAR-8
MDA-N = system: MDA-N
UO-31 = system: UO-31
MCF7 = system: MCF7
LOX IMVI = system: LOX IMVI
MDA-MB-231 = system: MDA-MB-231
COLO 205 = system: COLO 205
OVCAR-4 = system: OVCAR-4
A498 = system: A498

| SMILES | GI50 (T47D) | GI50 (HOP-92) | GI50 (PC-3) | GI50 (DU-145) | GI50 (IGROV-1) | GI50 (NCI-H226) | GI50 (SR) | GI50 (786-0) | GI50 (NCI/ADR-RES) | GI50 (TK-10) | GI50 (SK-OV-3) | GI50 (OVCAR-8) | GI50 (MDA-N) | GI50 (UO-31) | GI50 (MCF7) | GI50 (LOX IMVI) | GI50 (MDA-MB-231) | GI50 (COLO 205) | GI50 (OVCAR-4) | GI50 (A498) |
| --- | --- | --- | --- | --- | --- | --- | --- | --- | --- | --- | --- | --- | --- | --- | --- | --- | --- | --- | --- | --- |
| Cc1c2c3ccccc3nc-2n(C)c2ccccc12 | 3.08 µM (inactive) | 2.61 µM (inactive) | 2.17 µM (inactive) | 3.67 µM (inactive) | 2.32 µM (inactive) | 2.77 µM (inactive) | 1.44 µM (inactive) | 2.02 µM (inactive) | 2.01 µM (inactive) | 1.94 µM (inactive) | 1.25 µM (inactive) | 1.69 µM (inactive) | 2.72 µM (inactive) | 1.79 µM (inactive) | 1.41 µM (inactive) |  |  |  |  |  |
| Oc1cc2c(cc1C(c1ccc3c(c1)OCO3)N1CCN(C(c3ccc4c(c3)OCO4)c3cc4c(cc3O)OCO4)CC1)OCO2 (stereo unspecified) | 17.2 µM (inactive) | 23.2 µM (inactive) | 28.9 µM (inactive) | 20.3 µM (inactive) | 16.9 µM (inactive) | 16.1 µM (inactive) | 3.61 µM (inactive) | 13.1 µM (inactive) | 19.2 µM (inactive) | 20.2 µM (inactive) | 27 µM (inactive) | 14 µM (inactive) |  | 12 µM (inactive) | 27.2 µM (inactive) | 3.24 µM (inactive) | 15.7 µM (inactive) | 31 µM (inactive) | 4.36 µM (inactive) |  |
| COc1cccc(C(=O)O[C@H]2[C@@H]3[C@]4(OC(C)=O)CO[C@@H]4C[C@H](O)[C@@]3(C)C(=O)[C@H](OC(C)=O)C3=C(C)[C@@H](OC(=O)[C@H](O)[C@@H](NC(=O)OC(C)(C)C)c4ccco4)C[C@]2(O)C3(C)C)c1 |  |  | < 0.00375 µM (active) | < 0.00375 µM (active) | < 0.00375 µM (active) | 0.36 µM (active) | < 0.00375 µM (active) | 0.00522 µM (active) | 0.0107 µM (active) | 0.00527 µM (active) | < 0.00375 µM (active) | < 0.00375 µM (active) | < 0.00375 µM (active) | < 0.00375 µM (active) | < 0.00375 µM (active) | < 0.00375 µM (active) | < 0.00375 µM (active) | < 0.00375 µM (active) | 6.32 µM (inactive) |  |
| O=[N+]([O-])C(=C/C1CCCCC1)/C(=C\C1CCCCC1)[N+](=O)[O-] | 9.73 µM (inactive) | 7.05 µM (inactive) | 6.32 µM (inactive) | 13.3 µM (inactive) | 5.27 µM (inactive) | 7.28 µM (inactive) | 1.8 µM (inactive) | 1.84 µM (inactive) | 2.47 µM (inactive) | 6.27 µM (inactive) | 21.7 µM (inactive) | 3.3 µM (inactive) |  | 7.87 µM (inactive) | 5.3 µM (inactive) | 2.12 µM (inactive) | 2.73 µM (inactive) | 3.21 µM (inactive) | 18.9 µM (inactive) | 15.3 µM (inactive) |
| NC(Cc1ccc(OCc2ccccc2)cn1)C(=O)O (stereo unspecified) |  |  | > 100 µM (inactive) | > 100 µM (inactive) | > 100 µM (inactive) | > 100 µM (inactive) | > 100 µM (inactive) | > 100 µM (inactive) | > 100 µM (inactive) | > 100 µM (inactive) |  | > 100 µM (inactive) | > 100 µM (inactive) | > 100 µM (inactive) | > 100 µM (inactive) | > 100 µM (inactive) | > 100 µM (inactive) | > 100 µM (inactive) |  | > 100 µM (inactive) |
| CC(=O)C1=C(O)/C(=C\c2ccco2)OC1=O | > 10 µM (inactive) | > 10 µM (inactive) | > 10 µM (inactive) | > 10 µM (inactive) | > 10 µM (inactive) | > 10 µM (inactive) | > 10 µM (inactive) | > 10 µM (inactive) | > 10 µM (inactive) | > 10 µM (inactive) | > 10 µM (inactive) | > 10 µM (inactive) |  | > 10 µM (inactive) | > 10 µM (inactive) | > 10 µM (inactive) | > 10 µM (inactive) | > 10 µM (inactive) | > 10 µM (inactive) | > 10 µM (inactive) |
| COc1cc(O)c2c(c1)OCC(Cc1ccc(O)cc1)C2=O (stereo unspecified) | 45.4 µM (inactive) | 37.9 µM (inactive) | > 100 µM (inactive) | > 100 µM (inactive) | > 100 µM (inactive) | > 100 µM (inactive) | 55.8 µM (inactive) | > 100 µM (inactive) | > 100 µM (inactive) | > 100 µM (inactive) | > 100 µM (inactive) | > 100 µM (inactive) | > 100 µM (inactive) | > 100 µM (inactive) |  | > 100 µM (inactive) | > 100 µM (inactive) | > 100 µM (inactive) | 86.3 µM (inactive) | 36.1 µM (inactive) |
| O=c1[nH]c(=O)c2c([nH]1)[nH]c1ccc(Br)cc12 | > 100 µM (inactive) | 62.5 µM (inactive) |  | > 100 µM (inactive) | 77.6 µM (inactive) | > 100 µM (inactive) | > 100 µM (inactive) | 66.2 µM (inactive) | > 100 µM (inactive) | > 100 µM (inactive) | 13.6 µM (inactive) | > 100 µM (inactive) | > 100 µM (inactive) | 56.9 µM (inactive) | 69 µM (inactive) | > 100 µM (inactive) | 93.5 µM (inactive) | > 100 µM (inactive) |  | > 100 µM (inactive) |
| CN1C(=O)N(C)C(O)C(Cl)(Br)C1=O (stereo unspecified) |  |  | > 100 µM (inactive) | > 100 µM (inactive) | > 100 µM (inactive) | > 100 µM (inactive) | > 100 µM (inactive) | > 100 µM (inactive) | > 100 µM (inactive) | > 100 µM (inactive) | > 100 µM (inactive) | > 100 µM (inactive) | > 100 µM (inactive) | > 100 µM (inactive) | > 100 µM (inactive) | > 100 µM (inactive) | > 100 µM (inactive) | > 100 µM (inactive) |  | > 100 µM (inactive) |
| COc1cc2c[n+]3c4c(c2c(OC)c1OC)CCCC4CC3 (stereo unspecified) | 27.9 µM (inactive) | > 100 µM (inactive) | > 100 µM (inactive) | > 100 µM (inactive) | > 100 µM (inactive) |  |  | > 100 µM (inactive) | > 100 µM (inactive) |  | > 100 µM (inactive) |  | > 100 µM (inactive) | > 100 µM (inactive) |  |  | > 100 µM (inactive) | > 100 µM (inactive) | > 100 µM (inactive) | > 100 µM (inactive) |
| O=C(NS(=O)(=O)Nc1ccc(Cl)cc1)OCc1ccc(Cl)cc1Cl |  | 24.7 µM (inactive) | 31.4 µM (inactive) | 21.3 µM (inactive) | 17.8 µM (inactive) |  | 38.2 µM (inactive) | 34.6 µM (inactive) | 21.9 µM (inactive) | 16 µM (inactive) | 21.1 µM (inactive) | 31.3 µM (inactive) | 14.7 µM (inactive) | 17.5 µM (inactive) | 14.8 µM (inactive) | 22.6 µM (inactive) | 23.3 µM (inactive) | 16.7 µM (inactive) | 24 µM (inactive) | 3.94 µM (inactive) |
| COC(=O)[C@H]1COC(=O)N1 | > 100 µM (inactive) | > 100 µM (inactive) |  | > 100 µM (inactive) | > 100 µM (inactive) | > 100 µM (inactive) |  | > 100 µM (inactive) | > 100 µM (inactive) | > 100 µM (inactive) | > 100 µM (inactive) | > 100 µM (inactive) | > 100 µM (inactive) | > 100 µM (inactive) | > 100 µM (inactive) | > 100 µM (inactive) | > 100 µM (inactive) | > 100 µM (inactive) | > 100 µM (inactive) | > 100 µM (inactive) |
| CC(Br)C(=O)c1ccc2cc(Br)c3ccccc3c2c1 (stereo unspecified) | 11.9 µM (inactive) | 16.4 µM (inactive) |  | 16.5 µM (inactive) | 13.1 µM (inactive) |  | 3.15 µM (inactive) | 3.34 µM (inactive) | 18 µM (inactive) | 19 µM (inactive) | 16.8 µM (inactive) | 14 µM (inactive) | 12.9 µM (inactive) | 17.6 µM (inactive) | 14.9 µM (inactive) | 6.79 µM (inactive) | 16.3 µM (inactive) |  | 16.7 µM (inactive) | 18.7 µM (inactive) |
| Nc1nc(O)c([I+]c2ccccc2)c(=O)[nH]1 |  | > 100 µM (inactive) | > 100 µM (inactive) | > 100 µM (inactive) | > 100 µM (inactive) | > 100 µM (inactive) | > 100 µM (inactive) | > 100 µM (inactive) | > 100 µM (inactive) | > 100 µM (inactive) |  | > 100 µM (inactive) | > 100 µM (inactive) | 85.1 µM (inactive) | > 100 µM (inactive) | > 100 µM (inactive) | > 100 µM (inactive) | > 100 µM (inactive) | > 100 µM (inactive) | > 100 µM (inactive) |
| C#CCOCC12C=CC(O1)C1COC(=O)C12 (stereo unspecified) | > 100 µM (inactive) | 7.14 µM (inactive) | > 100 µM (inactive) | > 100 µM (inactive) | > 100 µM (inactive) | > 100 µM (inactive) | > 100 µM (inactive) | > 100 µM (inactive) | > 100 µM (inactive) | > 100 µM (inactive) | > 100 µM (inactive) | > 100 µM (inactive) | > 100 µM (inactive) | > 100 µM (inactive) |  | > 100 µM (inactive) | > 100 µM (inactive) | > 100 µM (inactive) | > 100 µM (inactive) | > 100 µM (inactive) |
| CN(C)C1(c2cc3ccccc3s2)CCCCC1 |  | 1.79 µM (inactive) | 28.8 µM (inactive) | 54.8 µM (inactive) | 36.1 µM (inactive) | 44.9 µM (inactive) | 18 µM (inactive) | 22.2 µM (inactive) | 44.1 µM (inactive) | 47.2 µM (inactive) | 39.5 µM (inactive) | 51.3 µM (inactive) | 32.2 µM (inactive) | 30.9 µM (inactive) | 48.6 µM (inactive) | 22.5 µM (inactive) | 65.6 µM (inactive) | 26.4 µM (inactive) | 47.2 µM (inactive) | 32.8 µM (inactive) |
